Calls of active or inactive are those of the source. No cut-off for these calls is given here.
Key:
Homo sapiens = species: Homo sapiens; assay: Selectivity for human adenosine A2A receptor over human adenosine A1 receptor
Adenosine receptor A2a [1] = target: Adenosine receptor A2a (Homo sapiens, UniProt P29274); assay: Displacement of [3H]ZM-241385 from human adenosine A2A receptor expressed in HEK293 cells; assay type: cell-based
[2] = Aqueous solubility at pH 8.0 by HPLC; assay type: physicochemical
Rattus norvegicus [3] = assay: Inhibition of haloperidol-induced catalepsy in po dosed rat; assay type: functional; conditions: read-out: MED
Cytochrome P450 3A4 = Cytochrome P450 3A4 (Homo sapiens, UniProt P08684); assay: Inhibition of CYP3A4; assay type: ADME
Chain of Cytochrome P450 3A4 (P08684 whole entry): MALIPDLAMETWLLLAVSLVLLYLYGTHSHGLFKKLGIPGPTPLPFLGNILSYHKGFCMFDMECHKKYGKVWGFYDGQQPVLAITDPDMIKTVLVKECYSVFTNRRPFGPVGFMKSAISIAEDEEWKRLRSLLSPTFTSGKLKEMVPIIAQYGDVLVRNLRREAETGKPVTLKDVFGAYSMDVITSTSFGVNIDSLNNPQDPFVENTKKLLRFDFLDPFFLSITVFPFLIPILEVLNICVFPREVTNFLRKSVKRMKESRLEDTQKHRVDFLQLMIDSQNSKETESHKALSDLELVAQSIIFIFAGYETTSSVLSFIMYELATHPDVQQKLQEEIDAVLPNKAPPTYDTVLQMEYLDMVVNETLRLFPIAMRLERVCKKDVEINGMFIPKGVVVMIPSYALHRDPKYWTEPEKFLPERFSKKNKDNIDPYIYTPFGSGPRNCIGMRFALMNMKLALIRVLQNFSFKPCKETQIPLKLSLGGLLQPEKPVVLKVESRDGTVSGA

Adenosine receptor A2a [4] = target: Adenosine receptor A2a (Rattus norvegicus, UniProt P30543); assay: Activity at adenosine A2A receptor in rat PC12 cells assessed as intracellular cAMP accumulation; assay type: functional, cell-based, PC-12
Chain of Adenosine receptor A2a (Rattus norvegicus, UniProt P30543) (P30543 whole entry): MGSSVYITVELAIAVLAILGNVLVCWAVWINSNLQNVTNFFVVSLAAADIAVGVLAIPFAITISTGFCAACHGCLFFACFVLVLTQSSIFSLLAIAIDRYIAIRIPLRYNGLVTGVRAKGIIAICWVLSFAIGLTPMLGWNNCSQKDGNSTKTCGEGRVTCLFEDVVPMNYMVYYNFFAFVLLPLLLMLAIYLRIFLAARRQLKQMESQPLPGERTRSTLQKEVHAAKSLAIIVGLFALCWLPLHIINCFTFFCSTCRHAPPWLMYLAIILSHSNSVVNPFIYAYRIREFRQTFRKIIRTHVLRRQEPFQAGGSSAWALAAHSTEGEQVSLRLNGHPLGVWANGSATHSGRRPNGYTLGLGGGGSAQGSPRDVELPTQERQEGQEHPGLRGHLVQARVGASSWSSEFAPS

Rattus norvegicus [5] = assay: Inhibition of haloperidol-induced catalepsy in rat at 30 mg/kg, po; assay type: functional, organism-based; design: dose 30 mg/kg
[6] = Metabolic stability in human liver microsomes assessed as intrinsic clearance; assay type: ADME, Microsome
Cytochrome P450 2D6 = Cytochrome P450 2D6 (Homo sapiens, UniProt P10635); assay: Inhibition of CYP2D6; assay type: ADME
Chain of Cytochrome P450 2D6 (P10635 whole entry): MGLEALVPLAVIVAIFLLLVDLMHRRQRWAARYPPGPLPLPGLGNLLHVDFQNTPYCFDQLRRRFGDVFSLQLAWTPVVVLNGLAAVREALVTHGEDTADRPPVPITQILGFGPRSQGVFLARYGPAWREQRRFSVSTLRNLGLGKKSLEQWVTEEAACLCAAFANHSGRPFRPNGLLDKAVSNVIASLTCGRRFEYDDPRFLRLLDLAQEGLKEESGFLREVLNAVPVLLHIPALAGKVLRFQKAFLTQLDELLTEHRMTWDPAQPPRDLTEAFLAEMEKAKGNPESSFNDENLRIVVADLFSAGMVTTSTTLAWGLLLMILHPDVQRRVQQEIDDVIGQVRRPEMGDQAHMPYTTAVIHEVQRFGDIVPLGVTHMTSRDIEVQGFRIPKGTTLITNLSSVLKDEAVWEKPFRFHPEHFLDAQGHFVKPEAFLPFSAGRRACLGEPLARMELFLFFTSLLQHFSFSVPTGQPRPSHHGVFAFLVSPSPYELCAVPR

Chain of Adenosine receptor A2a (Homo sapiens, UniProt P29274) (P29274 whole entry): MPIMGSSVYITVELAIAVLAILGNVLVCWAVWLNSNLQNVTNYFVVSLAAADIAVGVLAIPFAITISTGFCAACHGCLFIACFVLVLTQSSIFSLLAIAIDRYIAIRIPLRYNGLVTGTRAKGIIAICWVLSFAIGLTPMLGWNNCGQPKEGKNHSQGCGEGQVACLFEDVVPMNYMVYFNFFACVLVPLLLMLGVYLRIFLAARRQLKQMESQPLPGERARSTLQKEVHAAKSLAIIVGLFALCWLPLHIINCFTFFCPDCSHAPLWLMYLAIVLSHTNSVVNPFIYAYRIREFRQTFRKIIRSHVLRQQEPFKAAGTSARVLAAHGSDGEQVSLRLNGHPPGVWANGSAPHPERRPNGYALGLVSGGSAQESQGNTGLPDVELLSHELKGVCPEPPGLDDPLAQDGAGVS

Structure (SMILES)	Ratio Ki (Homo sapiens)	Ki (Adenosine receptor A2a [1])	also measured
COc1ccc(-c2cc(NC(C)=O)nc(-n3nc(C)cc3C)n2)cc1	44	17 nM	–
CN1CCN(CC(=O)Nc2cc(-n3cccn3)nc(-c3ccco3)n2)CC1	–	3 nM	–
COc1cc(OC)cc(-c2cc(NC(C)=O)nc(-n3nc(C)cc3C)n2)c1	111	0.2 nM	solubility [2]: < 100 µg/mL; minimal effective dose (Rattus norvegicus [3]): 1 mg/kg; Activity (Cytochrome P450 3A4; TDE = time-dependent effect): tde; IC50 (Adenosine receptor A2a [4]): 29 nM
CC(=O)Nc1cc(-c2cc(F)cc(O[C@H]3CCN(C)C3)c2)nc(-n2nc(C)cc2C)n1	218	1 nM	Activity (Rattus norvegicus [5]): Active; solubility [2]: > 4000 µg/mL; Activity (Cytochrome P450 3A4): Not Active; IC50 (Adenosine receptor A2a [4]): 15 nM; CLint scaled [6]: 3 mL/min/kg; Activity (Cytochrome P450 2D6): Not Active
CC(=O)Nc1cc(-c2cccc(CC#N)c2)nc(-n2nc(C)cc2C)n1	50	2 nM	–
CC(=O)Nc1cc(-c2cccc(O[C@H]3CCN(C)C3)c2)nc(-n2nc(C)cc2C)n1	320	2 nM	–
CC(=O)Nc1cc(-c2cccc(OC3CCCN(C)C3)c2)nc(-n2nc(C)cc2C)n1 (centres undefined)	203	1 nM	–
CCN1CCC(Oc2cccc(-c3cc(NC(C)=O)nc(-n4nc(C)cc4C)n3)c2)C1 (centres undefined)	168	3 nM	–
CC(=O)Nc1cc(-c2cc(F)cc(O[C@@H]3CCN(C)C3)c2)nc(-n2nc(C)cc2C)n1	125	2 nM	CLint scaled [6]: 3 mL/min/kg
CC(=O)Nc1cc(-c2cccc(OC3CCN(C(C)C)C3)c2)nc(-n2nc(C)cc2C)n1 (centres undefined)	167	3 nM	–
CC(=O)Nc1cc(-c2cccc(CO[C@H]3CCN(C)C3)c2)nc(-n2nc(C)cc2C)n1	102	73 nM	–
CC(=O)Nc1cc(-c2cccc(OC3CCN(C)CC3)c2)nc(-n2nc(C)cc2C)n1	146	6 nM	–
CC(=O)Nc1cc(-c2cccc(CO[C@@H]3CCN(C)C3)c2)nc(-n2nc(C)cc2C)n1	99	67 nM	–
COc1c(F)cccc1-c1cc(NC(C)=O)nc(-n2nc(C)cc2C)n1	164	3 nM	solubility [2]: < 100 µg/mL
CC(=O)Nc1cc(-c2cccc(O[C@@H]3CCN(C)C3)c2)nc(-n2nc(C)cc2C)n1	145	4 nM	–
CC(=O)Nc1cc(-c2cccc(OCCN(C)C)c2)nc(-n2nc(C)cc2C)n1	134	5 nM	solubility [2]: > 4000 µg/mL
CC(=O)Nc1cc(-c2cc(F)cc(OC3CCN(C)C3)c2)nc(-n2nc(C)cc2C)n1 (centres undefined)	135	1 nM	CLint scaled [6]: 3 mL/min/kg
COc1ccccc1-c1cc(NC(C)=O)nc(-n2nc(C)cc2C)n1	71	2 nM	–
CC(=O)Nc1cc(-c2cccc(OC3CCN(C)C3)c2)nc(-n2nc(C)cc2C)n1 (centres undefined)	191	2 nM	solubility [2]: > 4000 µg/mL; IC50 (Adenosine receptor A2a [4]): 42 nM; CLint scaled [6]: 54 mL/min/kg

Continued, in another order:

Ratio Ki (Homo sapiens)	Ki (Adenosine receptor A2a [1])	Structure (SMILES)	also measured
74	2 nM	CC(=O)Nc1cc(-c2cccc(O)c2)nc(-n2nc(C)cc2C)n1	–
72	1 nM	COc1cccc(-c2cc(NC(C)=O)nc(-n3nc(C)cc3C)n2)c1	–
54	2 nM	CC(=O)Nc1cc(-c2cc(O)cc(F)c2)nc(-n2nc(C)cc2C)n1	–
43	8 nM	CC(=O)Nc1cc(-c2cc(C)cc(C)c2)nc(-n2nc(C)cc2C)n1	–
46	19 nM	CC(=O)Nc1cc(-c2cc(C)ccc2C)nc(-n2nc(C)cc2C)n1	–
10	2 nM	CC(=O)Nc1cc(-c2cccc(C#N)c2)nc(-n2nc(C)cc2C)n1	–
64	4 nM	CC(=O)Nc1cc(-c2cc(F)cc(F)c2)nc(-n2nc(C)cc2C)n1	–
40	2 nM	CC(=O)Nc1cc(-c2cccc(C(F)(F)F)c2)nc(-n2nc(C)cc2C)n1	–
59	7 nM	CC(=O)Nc1cc(-c2cccc(C)c2)nc(-n2nc(C)cc2C)n1	–
7	87 nM	CC(=O)Nc1cc(-c2ccccc2)nc(-n2nc(C)cc2C)n1	–
